In US4107201A, “S-Phenenyltris(thioureylene)trinaphthalenetrisulfonic acid salts” (American Cyanamid Company, priority 1977, dated 1978):
Structures can show the parent of a compound that is named as a salt.

Experiments:
[1] = test system: late components of human complement (C3-C9); assay: Test, Code 035 (C3-C9 inhibitor): lysis of EAC 142 by late components of human complement; type: biochemical; details: well number in two-fold serial dilution assay; higher well number indicates higher activity
Text: An active inhibitor protects C2 from C1 and C4; (ii) Test, Code 035 (C3-C9 inhibitor) -- This test determines the ability of the late components of human complement (C3-C9) to lyse EAC 142 in the presence of appropriate dilutions of the test compound. An active inhibitor protects EAC 142 from lysis by human C3-C9; (iii) Test, Code 036 (C-Shunt inhibitor) -- In this test human erythrocytes rendered fragile are lysed in autologous serum via the shunt pathway activated by cobra venom factor in the presence of appropriate dilutions of the test compound. Inhibition of the shunt pathway results in failure of lysis; (iv) Forssman Vasculitis Test -- Here, the well known complement dependent lesion, Forssman vasculitis, is produced in guinea pigs by intradermal injection of rabbit anti-Forssman antiserum. […]

[2] = test system: whole complement; assay: Complement Level Reduction Test: serum whole complement of dosed guinea pigs by capillary tube assay; type: in vivo; details: guinea pig, vs simultaneous controls
Text: An active inhibitor protects C2 from C1 and C4; (ii) Test, Code 035 (C3-C9 inhibitor) -- This test determines the ability of the late components of human complement (C3-C9) to lyse EAC 142 in the presence of appropriate dilutions of the test compound. An active inhibitor protects EAC 142 from lysis by human C3-C9; (iii) Test, Code 036 (C-Shunt inhibitor) -- In this test human erythrocytes rendered fragile are lysed in autologous serum via the shunt pathway activated by cobra venom factor in the presence of appropriate dilutions of the test compound. Inhibition of the shunt pathway results in failure of lysis; (iv) Forssman Vasculitis Test -- Here, the well known complement dependent lesion, Forssman vasculitis, is produced in guinea pigs by intradermal injection of rabbit anti-Forssman antiserum. The lesion is measured in terms of diameter, edema and hemorrhage and the extent to which a combined index of these is inhibited by prior intraperitoneal injection of the test compound at 200 mg/kg is then reported, unless otherwise stated; (v) Forssman Shock Test -- Lethal shock is produced in guinea pigs by an i.v. injection of anti-Forssman antiserum and the harmonic mean death time of treated guinea pigs is compared with that of simultaneous controls; (vi) Complement Level Reduction Test -- In this test, the above dosed guinea pigs, or others, are bled for serum and the complement level is determined in undiluted serum by the capillary tube method of U.S. Pat. No. 3,876,376 and compared to undosed control guinea pigs; and (vii) Cap 50 Test -- Here, appropriate amounts of the test compound are added to a pool of guinea pig serum in vitro, after which the undiluted serum capillary tube assay referred to above is run. The concentration of compound inhibiting 50% is reported.
With reference to Table I, guinea pigs weighing about 300 g were dosed intravenously (i.v.) or intraperitoneally (i.p.) with 200 mg/kg of the test compound dissolved in saline and adjusted to pH 7-8. […] The serum was tested for whole complement using the capillary tube assay. Percent inhibition was calculated by comparison with simultaneous controls. The results appear in Table I together with results of tests, code 026, 035, 036, Cap 50, % inhibition and Forssman shock.

[3] = test system: complement system; details: cited from earlier work
[4] = test system: hereditary angioneurotic edema; details: in vivo; cited from earlier work
[5] = test system: total hemolytic complement activity (human serum); details: in vitro and in vivo, reduction in total hemolytic complement activity; cited from earlier work

Compound: O=S(=O)(O)c1cc(NC(=S)Nc2cc(NC(=S)Nc3cc(S(=O)(=O)O)cc4cc(S(=O)(=O)O)cc(S(=O)(=O)O)c34)cc(NC(=S)Nc3cc(S(=O)(=O)O)cc4cc(S(=O)(=O)O)cc(S(=O)(=O)O)c34)c2)c2c(S(=O)(=O)O)cc(S(=O)(=O)O)cc2c1 [8,8',8"-[s-Phenenyltris(2-thioureylene)]tri-1,3,6-naphthalenetrisulfonic acid nonasodium salt]
- C-Late 035 Wells [1]: +1 Wells
- % change in serum whole complement level ([2]; 200 mg/kg i.p., 30 mins.): -81%
- % change in serum whole complement level ([2]; 200 mg/kg i.p., 60 mins.): -84%
- % change in serum whole complement level ([2]; 200 mg/kg i.p., 120 mins.): -91%
- % change in serum whole complement level ([2]; 200 mg/kg i.v., 2 mins.): -98%
- % change in serum whole complement level ([2]; 200 mg/kg i.v., 30 mins.): -92%
- % change in serum whole complement level ([2]; 200 mg/kg i.v., 120 mins.): -86%

Compound: Cc1ccc(C(=O)Nc2ccc(S(=O)(=O)O)c3cc(S(=O)(=O)O)cc(S(=O)(=O)O)c23)cc1NC(=O)c1cccc(NC(=O)Nc2cccc(C(=O)Nc3cc(C(=O)Nc4ccc(S(=O)(=O)O)c5cc(S(=O)(=O)O)cc(S(=O)(=O)O)c45)ccc3C)c2)c1 [Suramin]
- anticomplementary effect / complement inhibition [3]: competitive inhibitor of the complement system
- use in treatment of hereditary angioneurotic edema [4]: used with success

Compound: Nc1ccc2cc(S(=O)(=O)O)cc(O)c2c1N=Nc1ccc(NC(=O)Nc2ccc(N=Nc3c(N)ccc4cc(S(=O)(=O)O)cc(O)c34)c(S(=O)(=O)O)c2)cc1S(=O)(=O)O [chlorazol fast pink, 3,3'-ureylenebis-[6-(2-amino-8-hydroxy-6-sulfo-1-naphthylazo)]benzenesulfonic acid, tetrasodium salt]
- anticomplementary effect / complement inhibition [3]: anticomplementary effect

Compound: NCCCCCC(=O)O [epsilon-aminocaproic acid]
- use in treatment of hereditary angioneurotic edema [4]: used with success

Compound: NC[C@H]1CC[C@H](C(=O)O)CC1 [tranexamic acid]
- use in treatment of hereditary angioneurotic edema [4]: used with success

Compound: heparin
- anticomplementary effect / complement inhibition [3]: anticomplementary effect

Compound: pentosan-poly-sulfoester
- anticomplementary activity on human serum [5]: anticomplementary activity on human serum both in vitro and in vivo
